According to patent US11198695B2, “Fused ring derivative having MGAT-2 inhibitory activity” (Shionogi & Co., Ltd., priority 2017, dated 2021):
Converted amounts (≈) assume the structure as drawn. Read-outs that look alike come from different tables or passages of the source.

Experiments:
[1] = Metabolism stability test; format: in vitro ADME; details: human liver microsomes, 30 minutes, 37° C., NADPH, 0.5 μmol/L of test compound
Protocol: Using commercially available pooled human hepatic microsomes, the compound of the present invention was reacted for a constant time, a remaining rate was calculated by comparing a reacted sample and an unreacted sample, thereby, a degree of metabolism of the compound of the present invention in liver was assessed.
A reaction was performed (oxidative reaction) at 37° C. for 0 minute or 30 minutes in the presence of 1 mmol/L NADPH in 0.2 mL of a buffer (50 mmol/L Tris-HCl pH 7.4, 150 mmol/L potassium chloride, 10 mmol/L magnesium chloride) containing 0.5 mg protein/mL of human liver microsomes. After the reaction, 50 μL of the reaction solution was added to 100 μL of a methanol/acetonitrile=1/1 (v/v) solution, mixed and centrifuged at 3000 rpm for 15 minutes. The compound of the present invention in the supernatant was quantified by LC/MS/MS, and a remaining amount of the compound of the present invention after the reaction was calculated, letting a compound amount at 0 minute reaction time to be 100%. (Result) Remaining rate was shown at 0.5 μmol/L of test compound.

[2] = Solubility test (1% DMSO addition, pH 6.8 artificial intestinal juice); format: physicochemical; details: 16 hours at 25° C.; for solubility at 16 h: pH 6.8 artificial intestinal juice with 1% DMSO, kinetic from dmso stock
Protocol: The solubility of the compound of the present invention was determined under 1% DMSO addition conditions. 10 mmol/L solution of the compound was prepared with DMSO, and 6 μL of the solution of the compound of the present invention was added to 594 μL of pH 6.8 artificial intestinal juice (118 mL of 0.2 mol/L NaOH test solution and water were added to 250 mL of 0.2 mol/L potassium dihydrogen phosphate test solution to reach 1000 mL). The mixture was left standing for 16 hours at 25° C., and the mixture was vacuum-filtered. The filtrate was two-fold diluted with methanol/water=1/1 (V/V), and the compound concentration in the filtrate was measured with HPLC or LC/MS/MS by the absolute calibration method.

recombinant human MGAT2 = recombinant human MGAT2 (Homo sapiens (Human), UniProt Q3SYC2); experiment: Measurement of human MGAT2 inhibitory activity; format: biochemical
Sequence of recombinant human MGAT2 (Q3SYC2 whole entry): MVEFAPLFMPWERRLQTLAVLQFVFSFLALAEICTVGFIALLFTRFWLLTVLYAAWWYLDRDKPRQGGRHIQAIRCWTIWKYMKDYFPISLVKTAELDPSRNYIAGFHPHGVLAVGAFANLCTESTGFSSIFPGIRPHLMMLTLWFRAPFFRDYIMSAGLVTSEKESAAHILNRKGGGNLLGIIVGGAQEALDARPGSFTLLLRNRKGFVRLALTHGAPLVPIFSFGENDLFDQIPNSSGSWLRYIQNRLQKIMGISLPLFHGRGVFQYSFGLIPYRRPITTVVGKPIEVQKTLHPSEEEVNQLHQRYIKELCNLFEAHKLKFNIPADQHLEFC
Method in brief: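 RapidFire ESI-MS read-out of the diolein/diolein-d5 peak ratio gave % inhibition, with no-enzyme and full-enzyme wells as 100% and 0%. Reactions ran 1 h at room temperature at pH 7.4 (phosphate, 2 mmol/L DTT), using Flag-tagged human MGAT2 membranes from Sf9 cells and a substrate solution of 30 μmol/L 2-oleoylglycerol and 10 μmol/L oleoyl-CoA.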

[3] = read-out: IC50 (concentration exhibiting 50% enzyme inhibition), Table 53

SMILES | IC50 (recombinant human MGAT2; [3]) [nM] | further results
CS(=O)(=O)CC(=O)Nc1c2c(nn1CCC1CC1)C[C@]1(CCc3cc(OCC(F)(F)F)ccc31)NC2=O [Compound I-8] | – | Remaining rate (%) [1]: 102%; solubility at 16 h [2]: > 50 µM
CS(=O)(=O)CC(=O)Nc1c2c(nn1-c1ccccn1)C[C@]1(CCc3cc(OCCCC(F)(F)F)ccc31)NC2=O [Compound I-23] | – | Remaining rate (%) [1]: 98.7%; solubility at 16 h [2]: 48.2 µM (≈ 27.8 µg/mL)
O=C1N[C@@]2(CCc3cc(OCCCC(F)(F)F)ccc32)Cc2nn(CCC3CC3)c(-c3nn[nH]n3)c21 [Compound I-24] | – | Remaining rate (%) [1]: 78.2%; Solubility [2]: >50 µmol/L; IC50 (recombinant human MGAT2; read-out: IC50 (concentration exhibiting 50% enzyme inhibition), Table 52): 8.82 nM
CS(=O)(=O)CC(=O)Nc1c2c(nn1-c1ccc(C#N)cn1)C[C@]1(CCc3cc(OCC(F)(F)F)ccc31)NC2=O [Compound I-190] | – | Remaining rate (%) [1]: 96.6%; solubility at 16 h [2]: > 50 µM
CS(=O)(=O)CC(=O)Nc1c2c(nn1CCCC(F)(F)F)C[C@@]1(CCc3cc(OCC(F)(F)F)ccc31)NC2=O [Compound I-212] | – | Remaining rate (%) [1]: 62.6%; solubility at 16 h [2]: > 50 µM
Cc1ccc(-n2nc3c(c2NC(=O)CS(C)(=O)=O)C(=O)N[C@@]2(CCc4cc(OCC(F)(F)F)ccc42)C3)nc1 [Compound I-236] | – | Remaining rate (%) [1]: 87.6%; solubility at 16 h [2]: > 50 µM
Cc1ccc(-n2nc3c(c2NC(=O)CS(C)(=O)=O)C(=O)N[C@@]2(CCOc4cc(OCC(F)(F)F)ccc42)C3)nc1 [Compound I-275] | – | Remaining rate (%) [1]: 91.8%; solubility at 16 h [2]: > 50 µM
CS(=O)(=O)CC(=O)Nc1c2c(nn1CCCOC(F)(F)F)C[C@@]1(CCc3cc(OCC(F)(F)F)cc(F)c31)NC2=O [II-93] | – | Remaining rate (%) [1]: 103%; solubility at 16 h [2]: > 50 µM
Cc1ccc(-n2nc3c(c2NC(=O)CS(C)(=O)=O)C(=O)N[C@@]2(CCOc4cc(OCC(C)(F)F)ccc42)C3)nc1 [II-151] | – | Remaining rate (%) [1]: 82.6%; solubility at 16 h [2]: > 50 µM
CS(=O)(=O)CC(=O)Nc1c2c(nn1-c1ccc(C(F)F)cc1)C[C@]1(CCc3cc(OCC(F)(F)F)ccc31)NC2=O [II-174] | – | Remaining rate (%) [1]: 99.9%; solubility at 16 h [2]: 32.4 µM (≈ 19.4 µg/mL)
CS(=O)(=O)CC(=O)Nc1c2c(nn1-c1ccc(F)c(F)c1)C[C@]1(CCOc3cc(CCC(F)(F)F)ccc31)NC2=O [II-225] | – | Remaining rate (%) [1]: 104%; solubility at 16 h [2]: 45.1 µM (≈ 27 µg/mL)
NS(=O)(=O)CCNC(=O)c1c2c(nn1CCCOC(F)F)C[C@]1(CCc3cc(OCC(F)(F)F)ccc31)NC2=O [II-264] | 16.1 | –
O=C1N[C@@]2(CCc3cc(OCC(F)(F)F)ccc32)Cc2nn(CCCOC(F)F)c(C(=O)NCC3(O)CC3)c21 [II-265] | 54.4 | –
Cc1cc(-n2nc3c(c2NC(=O)CS(C)(=O)=O)C(=O)N[C@@]2(CCOc4cc(Cl)ccc42)C3)no1 [II-266] | 1.81 | –
Cc1cc(-n2nc3c(c2NC(=O)CS(C)(=O)=O)C(=O)N[C@@]2(CCc4cc(OCCCC(F)(F)F)ccc42)C3)nn1C [II-268] | 1.24 | –
Cc1ccc(-n2nc3c(c2NC(=O)CC(N)=O)C(=O)N[C@@]2(CCOc4cc(OCC(F)(F)F)ccc42)C3)nc1 [II-269] | 11.7 | –
CNS(=O)(=O)CC(=O)Nc1c2c(nn1-c1ccc(C)cn1)C[C@]1(CCOc3cc(OCC(F)(F)F)ccc31)NC2=O [II-271] | 1.34 | –

SMILES | IC50 (recombinant human MGAT2; [3]) [nM] | further results
Cc1ccc(-n2nc3c(c2NC(=O)C2(S(C)(=O)=O)CC2)C(=O)N[C@@]2(CCOc4cc(OCC(F)(F)F)ccc42)C3)nc1 [II-272] | 210 | –
N#Cc1ccc(-n2nc3c(c2C(=O)NS(=O)(=O)C2CC2)C(=O)N[C@]2(CCc4cc(OCC(F)(F)F)ccc42)C3)nc1 [II-273] | 14 | –
CS(=O)(=O)CC(=O)Nc1c2c(nn1CCCOC(F)(F)F)C[C@@]1(CCOc3cc(C4CC4)ccc31)NC2=O [II-279] | 1.12 | –
CS(=O)(=O)CC(=O)Nc1c2c(nn1CCCOC(F)(F)F)C[C@]1(CCc3cc(CCC(F)(F)F)ccc31)NC2=O [II-283] | < 1 | –
CS(=O)(=O)CC(=O)Nc1c2c(nn1CCCOC(F)(F)F)C[C@@]1(CCc3cc(CCC(F)(F)F)ccc31)NC2=O [II-284] | < 1 | –
CS(=O)(=O)CC(=O)Nc1c2c(nn1CCCOC(F)F)C[C@]1(CCc3cc(CCC(F)(F)F)ccc31)NC2=O [II-285] | 1.04 | –
CS(=O)(=O)CC(=O)Nc1c2c(nn1CCCOC(F)F)C[C@@]1(CCc3cc(CCC(F)(F)F)ccc31)NC2=O [II-286] | 1.15 | –
CC(F)(F)COc1ccc2c(c1)CC[C@]21Cc2nn(-c3ccc(C(F)F)cc3)c(NC(=O)CS(C)(=O)=O)c2C(=O)N1 [II-288] | 3.31 | –
CCS(=O)(=O)CC(=O)Nc1c2c(nn1CCCOC(F)(F)F)C[C@@]1(CCOc3cc(OCC(F)(F)F)ccc31)NC2=O [II-289] | 1.06 | –
CS(=O)(=O)CC(=O)Nc1c2c(nn1CCCOC(F)F)C[C@@]1(CCc3cc(OCC4CC(F)(F)C4)ccc31)NC2=O [II-291] | < 1 | –
O=C1N[C@]2(CCOc3cc(OCC(F)(F)F)ccc32)Cc2nn(CCCOC(F)(F)F)c(NC(=O)C3CS(=O)(=O)C3)c21 [II-293] | 2.76 | –
CS(=O)(=O)CC(=O)Nc1c2c(nn1-c1ccc(C3CC3)cn1)C[C@]1(CCOc3cc(OCC(F)(F)F)ccc31)NC2=O [II-296] | < 1 | –
CS(=O)(=O)CC(=O)Nc1c2c(nn1-c1ccc(C(F)F)cn1)C[C@]1(CCc3cc(OCC(F)(F)F)ccc31)NC2=O [II-297] | < 1 | –
CS(=O)(=O)CC(=O)Nc1c2c(nn1-c1ccc(C(F)F)cc1)C[C@]1(CCOc3cc(OCC(F)(F)F)ccc31)NC2=O [II-298] | < 1 | –
CS(=O)(=O)CC(=O)Nc1c2c(nn1-c1ccc(F)cc1)CC1(CN(c3ccc(C(F)(F)F)cc3)C1)NC2=O [II-301] | 15.9 | –
Cc1cc(-n2nc3c(c2NC(=O)CS(C)(=O)=O)C(=O)N[C@@]2(CCc4cc(Cl)ccc42)C3)nn1C [II-306] | 11.3 | –
Cc1ccc(-n2nc3c(c2NC(=O)CS(C)(=O)=O)C(=O)N[C@@]2(CCc4cc(Cl)ccc42)C3)nn1 [II-307] | 6.19 | –

Further lines, with some results ahead:

IC50 (recombinant human MGAT2; [3]) [nM] | SMILES | further results
2.2 | Cc1ccc(-n2nc3c(c2NC(=O)CS(C)(=N)=O)C(=O)N[C@@]2(CCc4cc(OCC(F)(F)F)ccc42)C3)nc1 (single isomer, unassigned) [II-276] | Remaining rate (%) [1]: 98.2%; solubility at 16 h [2]: > 50 µM
1 | Cc1cc(-n2nc3c(c2NC(=O)CS(C)(=O)=O)C(=O)N[C@@]2(CCOc4cc(CCC(F)(F)F)ccc42)C3)no1 [II-267] | –
6.67 | Cc1ccc(-n2nc3c(c2C(=O)NS(=O)(=O)C2CC2)C(=O)N[C@@](c2ccc(OCC(F)(F)F)cc2F)(C(F)(F)F)C3)nc1 [II-274] | –
1 | CS(=O)(=O)CC(=O)Nc1c2c(nn1CCCOC(F)(F)F)C[C@@]1(CCc3cc(OCCCC(F)(F)F)ccc31)NC2=O [II-277] | –
5.92 | Cc1cc(-n2nc3c(c2NC(=O)CS(C)(=O)=O)C(=O)N[C@@]2(CCc4cc(C(F)(F)F)ccc42)C3)nn1C [II-278] | –
< 1 | CS(=O)(=O)CC(=O)Nc1c2c(nn1CCCOC(F)(F)F)C[C@@]1(CCOc3cc(CCC(F)(F)F)ccc31)NC2=O [II-280] | –
< 1 | Cc1cc(-n2nc3c(c2NC(=O)CS(C)(=O)=O)C(=O)N[C@@]2(CCc4cc(OCCCC(F)(F)F)ccc42)C3)no1 [II-282] | –
5.26 | CS(=O)(=O)CC(=O)Nc1c2c(nn1-c1ccc(C(F)F)cc1)C[C@]1(CCc3cc(N4CC(F)(F)C4)ccc31)NC2=O [II-287] | –
< 1 | CS(=O)(=O)CC(=O)Nc1c2c(nn1CCCOC(F)F)C[C@]1(CCc3cc(OCC4CC(F)(F)C4)ccc31)NC2=O [II-290] | –
< 1 | CS(=O)(=O)CC(=O)Nc1c2c(nn1-c1ccc(C(F)(F)F)cn1)C[C@]1(CCOc3cc(OCC(F)(F)F)ccc31)NC2=O [II-294] | –
1.98 | Cc1cc(-n2nc3c(c2NC(=O)CS(C)(=O)=O)C(=O)N[C@@]2(CCc4cc(CCC(F)(F)F)ccc42)C3)nn1C [II-299] | –
< 1 | Cc1cc(-n2nc3c(c2NC(=O)CS(C)(=O)=O)C(=O)N[C@](C)(c2ccc(CCC(F)(F)F)cc2F)C3)no1 [II-300] | –
3.61 | Cc1ccc(-n2nc3c(c2NC(=O)CS(C)(=O)=O)C(=O)N[C@@]2(CCc4cc(C5CC5)ccc42)C3)nn1 [II-302] | –
4.42 | Cc1cc(-n2nc3c(c2NC(=O)CS(C)(=O)=O)C(=O)N[C@@]2(CCc4cc(C5CC5)ccc42)C3)nn1C [II-303] | –
1.39 | Cc1ccc(-n2nc3c(c2NC(=O)CS(C)(=O)=O)C(=O)N[C@@]2(CCc4cc(CCC(F)(F)F)ccc42)C3)nn1 [II-304] | –
1 | Cc1cc(-n2nc3c(c2NC(=O)CS(C)(=O)=O)C(=O)N[C@](C)(c2ccc(OCCCC(F)(F)F)cc2F)C3)no1 [II-305] | –
6.58 | Cc1ccc(-n2nc3c(c2NC(=O)CS(C)(=N)=O)C(=O)NC2(C3)CN(c3ccc(C(F)(F)F)cc3)C2)nc1 (centres unmarked) [II-308] | –
